Data published in ChEMBL document CHEMBL2034833, “Synthesis of chalcone-amidobenzothiazole conjugates as antimitotic and apoptotic inducing agents” (Bioorg Med Chem, 2012).
pIC50: −log10 of the molar value. Calls of active or inactive are those of the source. No cut-off for these calls is given here.

Legend:
A-375 = experiment: Cytotoxicity against human A375 cells after 48 hrs by MTT assay; type: functional, cell-based; details: A-375, 48 h
HT-29 = experiment: Cytotoxicity against human HT-29 cells after 48 hrs by MTT assay; type: functional, cell-based; details: HT-29, 48 h
ACHN = experiment: Cytotoxicity against human ACHN cells after 48 hrs by MTT assay; type: functional, cell-based
A549 [1] = experiment: cells; details: Homo sapiens, A549, 48 h
Description: Cytotoxicity against human A549 cells after 48 hrs by MTT assay

MCF7 = experiment: cells; details: Homo sapiens, MCF7, 48 h
Description: Cytotoxicity against human MCF7 cells after 48 hrs by MTT assay

A549 [2] = experiment: Cell cycle arrest in human A549 cells assessed as cell accumulation at subG1 phase at 2 uM after 48 hrs by propidium iodide staining based flow cytometry (reference value: […]); type: functional
A549 [3] = experiment: Cell cycle arrest in human A549 cells assessed as cell accumulation at G0/G1 phase at 2 uM after 48 hrs by propidium iodide staining based flow cytometry (reference value: 70.15%); type: functional
A549 [4] = experiment: Cell cycle arrest in human A549 cells assessed as cell accumulation at G2/M phase at 2 uM after 48 hrs by propidium iodide staining based flow cytometry (reference value: 23.75%); type: functional
[5] = Inhibition of tubulin polymerization at 3 uM after 1 hr by fluorescence assay
[6] = Inhibition of tubulin polymerization after 1 hr by fluorescence assay
Tubulin (Homo sapiens) = Tubulin (Homo sapiens) (UniProt P68371+Q9H4B7+P0DPH7+P68366+Q13509+Q71U36+P04350+Q3ZCM7+P07437+P68363+Q9BQE3+Q6PEY2+Q13885+Q9BVA1+Q9BUF5); experiment: Inhibition of tubulin polymerization in human A549 cells assessed as disrupted microtubule organization at 2 uM after 48 hrs by immunohistochemistry analysis; type: cell-based
A549 [7] = experiment: Induction of apoptosis in human A549 cells assessed as increase in caspase3 activity using AFC-conjugated Ac-DEVD as substrate at 2 uM after 48 hrs by fluorescence assay relative to control; type: functional
A549 [8] = experiment: Induction of apoptosis in human A549 cells assessed as necrotic cells at 2 uM after 48 hrs by annexin-V FITC/propidium iodide staining based FACS analysis; type: functional
A549 [9] = experiment: Induction of apoptosis in human A549 cells assessed as late apoptotic cells at 2 uM after 48 hrs by annexin-V FITC/propidium iodide staining based FACS analysis; type: functional
A549 [10] = experiment: Induction of apoptosis in human A549 cells assessed as viable cells at 2 uM after 48 hrs by annexin-V FITC/propidium iodide staining based FACS analysis; type: functional; details: A549, 48 h, read-out: Activity
A549 [11] = experiment: Induction of apoptosis in human A549 cells assessed as early apoptotic cells at 2 uM after 48 hrs by annexin-V FITC/propidium iodide staining based FACS analysis; type: functional

| SMILES | pIC50 (A-375) | pIC50 (HT-29; read-out: IC50) | pIC50 (ACHN) | pIC50 (A549 [1]) | pIC50 (MCF7) | Activity (A549 [2]) | Activity (A549 [3]) | Activity (A549 [4]) | inhibition [5] | pIC50 [6] | inhibition (Tubulin (Homo sapiens)) | fold change (FC) (A549 [7]) | Activity (A549 [8]) | Activity (A549 [9]) | viability at 2 µM (A549 [10]) | Activity (A549 [11]) | pIC50 (HT-29) |
| --- | --- | --- | --- | --- | --- | --- | --- | --- | --- | --- | --- | --- | --- | --- | --- | --- | --- |
| CCOc1ccc2nc(NC(=O)COc3cc(/C=C/C(=O)c4cc(OC)c(OC)c(OC)c4)ccc3OC)sc2c1 | 5.24 | 5.62 | 5.59 | 5.09 | 5.38 | – | – | – | – | – | – | – | – | – | – | – | – |
| COc1ccc(/C=C/C(=O)c2cc(OC)c(OC)c(OC)c2)cc1O | 6.72 | 5.72 | 5.79 | 6.12 | 6.92 | 12.34% | 18.59% | 55.47% | 62.6% | 5.43 | Active | 6 | – | – | – | – | – |
| COc1ccc(/C=C\c2cc(OC)c(OC)c(OC)c2)cc1O [COMBRETASTATIN A4] | 6.68 | – | 6.77 | 6.96 | 6.74 | 8.44% | 13.98% | 63.75% | 69.7% | – | – | – | 22% | 23.3% | 54.4% | 0.3% | 6.03 |
| COc1ccc(/C=C/C(=O)c2cc(OC)c(OC)c(OC)c2)cc1OCC(=O)Nc1nc2c(C)cccc2s1 | 5.55 | 5.21 | 5.42 | 5.29 | 5.60 | – | – | – | – | – | – | – | – | – | – | – | – |
